pIC50: −log10 of the molar value. Activity calls are given as the source filed them. The rule behind the calls is not given here.
Key:
[1] = Cytotoxicity against MDCK cells after 48 hrs by MTT assay; assay type: cell-based, Canis lupus familiaris; conditions: dog
Influenza A virus [2] = experiment: Antiviral activity against amantadine/oseltamivir-susceptible Influenza A virus (A/Singapore/1/57(H2N2)) infected in MDCK cells assessed as inhibition of viral replication after 48 hrs by hemagglutination test; assay type: functional, organism-based, Influenza A virus (A/Singapore/1/1957(H2N2))
H3N2 subtype = experiment: Antiviral activity against amantadine/oseltamivir-susceptible Influenza A virus (A/Aichi/2/68(H3N2)) infected in MDCK cells assessed as inhibition of viral replication after 48 hrs by hemagglutination test; assay type: functional, organism-based; conditions: A/Aichi/2/1968(H3N2)
[3] = Selectivity index, ratio of CC50 for MDCK cells to IC50 for amantadine/oseltamivir-susceptible Influenza A virus (A/mallard/Netherlands/12/00(H7N3)); assay type: toxicity; conditions: dog, read-out: Ratio CC50/IC50
[4] = Selectivity index, ratio of CC50 for MDCK cells to IC50 for amantadine/oseltamivir-susceptible Influenza A virus (A/Aichi/2/68(H3N2)); assay type: toxicity; conditions: dog, read-out: Ratio CC50/IC50
[5] = Selectivity index, ratio of CC50 for MDCK cells to IC50 for amantadine/oseltamivir-susceptible Influenza A virus (A/mallard/Pennsylvania/10218/84(H5N2)); assay type: toxicity; conditions: dog, read-out: Ratio CC50/IC50
[6] = Selectivity index, ratio of CC50 for MDCK cells to IC50 for amantadine/oseltamivir-susceptible Influenza A virus (A/Singapore/1/57(H2N2)); assay type: toxicity; conditions: dog, read-out: Ratio CC50/IC50
Influenza A virus [7] = experiment: Antiviral activity against Influenza A virus (A/Puerto Rico/8/34(H1N1)) infected in MDCK cells assessed as inhibition of viral replication at 500 uM up to 2 hrs post-infection by hemagglutination test; assay type: functional, organism-based; conditions: A/Puerto Rico/8/1934(H1N1)
Influenza A virus [8] = experiment: Antiviral activity against amantadine/oseltamivir-susceptible Influenza A virus (A/mallard/Pennsylvania/10218/84(H5N2)) infected in MDCK cells assessed as inhibition of viral replication after 48 hrs by hemagglutination test; assay type: functional, organism-based, Influenza A virus (A/mallard/Pennsylvania/10218/1984(H5N2))
Influenza A virus [9] = experiment: Antiviral activity against amantadine/oseltamivir-susceptible Influenza A virus (A/mallard/Netherlands/12/00(H7N3)) infected in MDCK cells assessed as inhibition of viral replication after 48 hrs by hemagglutination test; assay type: functional, organism-based, Influenza A virus (A/mallard/Netherlands/12/2000(H7N3))

Structure (SMILES)	CC50 at 48 h [1]	also measured
CC(N)C12CC3CC(CC(C3)C1)C2 (configuration not stated) [RIMANTADINE]	319 µM	–
CCC[C@H]1C[C@@](C)(O)[C@@H]2CC[C@@H](C)C[C@H]2O1	> 1330 µM	–
C[C@@H]1CC[C@@H]2[C@@H](C1)O[C@@H](C1CCCCC1)C[C@@]2(C)O	24.2 µM	–
CCCC1(CCC)C[C@@](C)(O)[C@@H]2CC[C@@H](C)C[C@@H]2O1	131 µM	–
C[C@@H]1CC[C@@H]2[C@H](C1)OC(C)(C)CC2(C)O (some centres not stated)	72.2 µM	–
C[C@@H]1CC[C@@H]2[C@@H](C1)OC(C)(C)C[C@@]2(C)O	> 1420 µM	pIC50 (Influenza A virus [2]): 6.05; pIC50 (H3N2 subtype): < 2.85; selectivity ratio [3]: 2; selectivity ratio [4]: 1; selectivity ratio [5]: 9; selectivity ratio [6]: 1570; inhibition (Influenza A virus [7]): Active; pIC50 (Influenza A virus [8]): 3.79; pIC50 (Influenza A virus [9]): 3.21
C[C@@H]1CC[C@@H]2[C@H](C1)OC1(CCCCCC1)C[C@@]2(C)O	210 µM	–
C[C@@H]1CC[C@@H]2[C@@H](C1)OC(C)(C)C[C@]2(C)O	816 µM	–
C[C@@H]1CC[C@@H]2[C@H](C1)OC1(CCCCCCC1)C[C@@]2(C)O	379 µM	–
C[C@@H]1CC[C@@H]2[C@H](C1)OC1(CCCCC1)C[C@@]2(C)O	627 µM	–
C[C@@H]1CC[C@@H]2[C@H](C1)OC1(CCCC1)C[C@@]2(C)O	810 µM	–
NC(=O)c1ncn([C@@H]2O[C@H](CO)[C@@H](O)[C@H]2O)n1 [RIBAVIRIN]	> 2130 µM	–
CCC1(CC)C[C@@](C)(O)[C@@H]2CC[C@@H](C)C[C@@H]2O1	188 µM	–

— ChEMBL document CHEMBL4118151, “Highly potent activity of isopulegol-derived substituted octahydro-2H-chromen-4-ols against influenza A and B viruses” (Bioorg Med Chem Lett, 2018)
